Patent publication US8669249B2, “Poly (ADP-ribose) polymerase (PARP) inhibitors” (Takeda Pharmaceutical Company Limited, priority 2009, dated 2014)

Tests used:
PARP = biological target: T1, PARP (Homo sapiens, UniProt P09874); experiment: PARP ELISA (ELISA-based colorimetric PARP/Apoptosis Assay kit, Trevigen); type: biochemical; details: pIC50=-log10 IC50, IC50 in mol/L; inhibition of PARP catalytic activity
T1 construct: purchased Trevigen 4684-096-K HT (kit); 4684-096-01 (PARP enzyme)
Procedure: Inhibition Constant (IC50) from PARP ELISA
After 10 minutes of catalysis the reaction is quenched by solvent aspiration followed by irrigation of the assay wells 4 times with phosphate buffered saline (PBS) containing 0.1% t-Octylphenoxypolyethoxyethanol (Triton® X-100). Mouse Anti-poly ADP ribose (PAR) monoclonal antibody, goat antimouse immunoglobulin G (IgG)-horse radish peroxidase (HRP) conjugate and HRP substrate are added according to the manufacture's specifications to generate a colorimetric signal proportional to PARP catalytic activity.

Jurkat cell line = experiment: PARP cellular chemopotentiation assay (MTS, with/without TMZ); type: cell-based; details: Chemopotentiation factor: ratio of EC50 values of Jurkat cells co-treated without and with 100 μM TMZ; 96 hours
Procedure: Potentiation Factor (PF50) Determination from PARP Cellular Chemopotentiation Assay
Jurkat cell line was maintained according to the supplier (American Type Culture Collection (Rockville, Md.)). Cells were seeded in 96-well tissue culture microplates at 10,000 cells per well and cultured for 24 hours prior to addition of compounds, TMZ (Temozolomide) or DMSO (dimethylsulfoxide) vehicle. After 96 hours of treatment, the conversion of MTS ([3-(4,5-dimethylthiazol-2-yl)-5-(3-carboxymethoxyphenyl)-2-(4-sulfophenyl)-2H-tetrazolium, inner salt], Promega, Madison, Wis.) by metabolically active cells was determined through measuring the OD490 nm with a Spectramax microplate reader (Molecular Devices, San Diego, Calif.). To generate concentration-response curves, cells were treated in duplicate with a range of serial compound dilutions (final DMSO concentration was 0.5%) in the absence or presence of 100 μM TMZ chemoreagent. The percentage of viable cells per well was calculated by correction for background and normalizing against DMSO-treated cells. EC50 values for inhibition of cell viability were calculated using XLfit4 MicroSoft Excel curve-fitting software. Chemopotentiation factor PF50 was calculated as the ratio of EC50 values of cells co-treated without and with TMZ, respectively.

[1] = biological target: T2, catalytic domain of Human PARP (Homo sapiens, UniProt P09874); experiment: Biacore surface plasmon resonance affinity assay; type: binding; details: pKD=-log10 KD, KD in mol/L; Biacore T100, 25° C.; read-out: pKD (converted)
T2 construct: The catalytic domain of Human PARP was cloned and prepared; made in house
T2 sequence (P09874 788-1014 limits assumed): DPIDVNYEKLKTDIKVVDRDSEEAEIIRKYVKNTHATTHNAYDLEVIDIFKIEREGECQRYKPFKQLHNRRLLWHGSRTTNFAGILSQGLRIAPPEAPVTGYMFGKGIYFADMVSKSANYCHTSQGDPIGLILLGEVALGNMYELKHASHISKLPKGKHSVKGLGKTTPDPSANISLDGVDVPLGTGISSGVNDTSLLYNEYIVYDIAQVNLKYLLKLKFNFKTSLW
In short: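 Binding at 25° C on Biacore T100: 1 min compound association then 5 min dissociation (50 μL/min) over immobilized PARP catalytic domain, buffer HBS-P plus 1% DMSO, 0.5 mM TCEP, 5 mM MgCl2, 2-fold dilution series. KD derived as koff/kon from fitted association and dissociation phases.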

T1 sequence (P09874 whole entry): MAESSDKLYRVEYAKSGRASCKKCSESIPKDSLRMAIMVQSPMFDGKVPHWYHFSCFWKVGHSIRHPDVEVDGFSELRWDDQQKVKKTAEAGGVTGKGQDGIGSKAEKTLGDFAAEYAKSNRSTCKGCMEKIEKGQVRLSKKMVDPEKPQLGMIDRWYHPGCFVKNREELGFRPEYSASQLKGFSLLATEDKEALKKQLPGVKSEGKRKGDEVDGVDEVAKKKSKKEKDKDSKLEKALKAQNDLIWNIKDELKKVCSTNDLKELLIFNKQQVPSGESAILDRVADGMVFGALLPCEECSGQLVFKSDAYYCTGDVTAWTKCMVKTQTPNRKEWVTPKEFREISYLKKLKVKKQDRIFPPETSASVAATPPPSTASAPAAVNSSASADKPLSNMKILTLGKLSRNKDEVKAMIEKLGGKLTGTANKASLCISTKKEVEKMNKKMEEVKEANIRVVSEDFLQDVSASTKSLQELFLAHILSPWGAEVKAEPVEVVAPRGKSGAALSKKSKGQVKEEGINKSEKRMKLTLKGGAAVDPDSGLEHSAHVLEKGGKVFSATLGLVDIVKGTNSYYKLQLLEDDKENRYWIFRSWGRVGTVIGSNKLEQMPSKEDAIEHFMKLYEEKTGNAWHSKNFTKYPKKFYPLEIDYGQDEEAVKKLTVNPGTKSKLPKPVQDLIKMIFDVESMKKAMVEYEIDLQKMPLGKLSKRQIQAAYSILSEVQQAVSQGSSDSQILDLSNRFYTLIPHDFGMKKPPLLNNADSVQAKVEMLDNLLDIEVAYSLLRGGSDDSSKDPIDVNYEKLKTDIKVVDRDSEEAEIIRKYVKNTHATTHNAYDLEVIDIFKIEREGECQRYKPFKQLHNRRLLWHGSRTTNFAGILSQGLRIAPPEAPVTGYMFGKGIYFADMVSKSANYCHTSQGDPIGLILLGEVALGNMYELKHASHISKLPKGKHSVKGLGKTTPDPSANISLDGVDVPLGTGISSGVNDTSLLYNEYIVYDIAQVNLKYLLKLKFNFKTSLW

Compound | IC50 (PARP) [nM] | PF50 (Jurkat cell line) | Kd [1] [nM]
CC1Oc2c(Cl)cc(CN3CC=C(c4ccc(Cl)cc4)CC3)cc2NC1=O (stereo not shown) [Compound 166, 8-Chloro-6-((4-(4-chlorophenyl)-5,6-dihydropyridin-1(2H)-yl)methyl)-2-methyl-2H-benzo[b][1,4]oxazin-3(4H)-one] | ≥ 126 | 1.0-1.9 | –
CC1Oc2c(Cl)cc(CN3CCN(c4ccc(Cl)cc4)CC3)cc2NC1=O (stereo not shown) [Compound 167, 8-Chloro-6-((4-(4-chlorophenyl)piperazin-1-yl)methyl)-2-methyl-2H-benzo[b][1,4]oxazin-3(4H)-one] | 39.8 to 100 | ≦0.9 | –
CC(=O)c1ccc(N2CCN(Cc3ccc4c(c3)NC(=O)C(C)O4)CC2)cc1 (stereo not shown) [Compound 218, 6-((4-(4-Acetylphenyl)piperazin-1-yl)methyl)-2-methyl-2H-benzo[b][1,4]oxazin-3(4H)-one] | ≥ 126 | ≦0.9 | –
CC1Oc2ccc(CN3CCN(c4ccc(C(=O)NCC5CC5)cc4)CC3)cc2NC1=O (stereo not shown) [Compound 226, N-(Cyclopropylmethyl)-4-(4-((2-methyl-3-oxo-3,4-dihydro-2H-benzo[b][1,4]oxazin-6-yl)methyl)piperazin-1-yl)benzamide] | 39.8 to 100 | ≦0.9 | –
CCNC(=O)c1ccc(N2CCN(Cc3ccc4c(c3)NC(=O)[C@H](C)O4)CC2)cc1 [Compound 249, (S)-N-Ethyl-4-(4-((2-methyl-3-oxo-3,4-dihydro-2H-benzo[b][1,4]oxazin-6-yl)methyl)piperazin-1-yl)benzamide] | ≤ 31.6 | 1.0-1.9 | –
CCNC(=O)c1ccc(N2CCN(Cc3ccc4c(c3)NC(=O)[C@@H](C)O4)CC2)cc1 [Compound 250, (R)-N-Ethyl-4-(4-((2-methyl-3-oxo-3,4-dihydro-2H-benzo[b][1,4]oxazin-6-yl)methyl)piperazin-1-yl)benzamide] | ≤ 31.6 | 2.0-9.9 | –
CCNC(=O)c1ccc(N2CCN(Cc3cc(C)c4c(c3)NC(=O)C(C)O4)CC2)cc1 (stereo not shown) [Compound 258, 4-(4-((2,8-Dimethyl-3-oxo-3,4-dihydro-2H-benzo[b][1,4]oxazin-6-yl)methyl)piperazin-1-yl)-N-ethylbenzamide] | ≤ 31.6 | ≧10.0 | –
CNC(=O)c1ccc(N2CCN(Cc3cc(C)c4c(c3)NC(=O)C(C)O4)CC2)nc1 (stereo not shown) [Compound 260, 6-(4-((2,8-Dimethyl-3-oxo-3,4-dihydro-2H-benzo[b][1,4]oxazin-6-yl)methyl)piperazin-1-yl)-N-methylnicotinamide] | – | 2.0-9.9 | ≤ 10
Cc1cc(CN2CCN(c3ccc(C(=O)NC4CC4)cn3)CC2)cc2c1OC(C)C(=O)N2 (stereo not shown) [Compound 262, N-Cyclopropyl-6-(4-((2,8-dimethyl-3-oxo-3,4-dihydro-2H-benzo[b][1,4]oxazin-6-yl)methyl)piperazin-1-yl)nicotinamide] | – | 2.0-9.9 | ≤ 10
CC1Oc2c(F)cc(CN3CCN(c4ccc(C#N)cc4)CC3)cc2NC1=O (stereo not shown) [Compound 266, 4-(4-((8-Fluoro-2-methyl-3-oxo-3,4-dihydro-2H-benzo[b][1,4]oxazin-6-yl)methyl)piperazin-1-yl)benzonitrile] | – | ≦0.9 | ≤ 10
CCOC(=O)c1ccc(N2CCN(Cc3cc(Cl)c4c(c3)NC(=O)C(C)O4)CC2)cc1 (stereo not shown) [Compound 306, Ethyl 4-(4-((8-chloro-2-methyl-3-oxo-3,4-dihydro-2H-benzo[b][1,4]oxazin-6-yl)methyl)piperazin-1-yl)benzoate] | 79.4 | 1.3 | –
CNC(=O)c1ccc(N2CCN(Cc3cc(Cl)c4c(c3)NC(=O)C(C)O4)CC2)cc1 (stereo not shown) [Compound 308, 4-(4-((8-Chloro-2-methyl-3-oxo-3,4-dihydro-2H-benzo[b][1,4]oxazin-6-yl)methyl)piperazin-1-yl)-N-methylbenzamide] | 20 | 6.3 | –
CCNC(=O)c1ccc(N2CCN(Cc3cc(Cl)c4c(c3)NC(=O)C(C)O4)CC2)cc1 (stereo not shown) [Compound 309, 4-(4-((8-Chloro-2-methyl-3-oxo-3,4-dihydro-2H-benzo[b][1,4]oxazin-6-yl)methyl)piperazin-1-yl)-N-ethylbenzamide] | 5.01 | 5.2 | –
CNC(=O)c1ccc(N2CCN(Cc3cc(F)c4c(c3)NC(=O)C(C)O4)CC2)nc1 (stereo not shown) [Compound 314, 6-(4-((8-Fluoro-2-methyl-3-oxo-3,4-dihydro-2H-benzo[b][1,4]oxazin-6-yl)methyl)piperazin-1-yl)-N-methylnicotinamide] | 31.6 | 1.8 | –
Cc1cc2c(cc1CN1CC=C(c3ccc(Cl)cc3)CC1)NC(=O)C(C)O2 (stereo not shown) [Compound 321, 6-((4-(4-Chlorophenyl)-5,6-dihydropyridin-1(2H)-yl)methyl)-2,7-dimethyl-2H-benzo[b][1,4]oxazin-3(4H)-one] | 2 | 1.4 | –
CC1Oc2cc(F)c(CN3CC=C(c4ccc(Cl)cc4)CC3)cc2NC1=O (stereo not shown) [Compound 331, 6-((4-(4-Chlorophenyl)-5,6-dihydropyridin-1(2H)-yl)methyl)-7-fluoro-2-methyl-2H-benzo[b][1,4]oxazin-3(4H)-one] | > 200 | 1.3 | –
CNC(=O)c1ccc(N2CCN(Cc3cc4c(cc3F)OC(C)C(=O)N4)CC2)cc1 (stereo not shown) [Compound 335, 4-(4-((7-Fluoro-2-methyl-3-oxo-3,4-dihydro-2H-benzo[b][1,4]oxazin-6-yl)methyl)piperazin-1-yl)-N-methylbenzamide] | 63.1 | 0.3 | –
CCNC(=O)c1ccc(N2CCN(Cc3cc4c(cc3F)OC(C)C(=O)N4)CC2)cc1 (stereo not shown) [Compound 336, N-Ethyl-4-(4-((7-fluoro-2-methyl-3-oxo-3,4-dihydro-2H-benzo[b][1,4]oxazin-6-yl)methyl)piperazin-1-yl)benzamide] | 100 | 2.1 | –
CC1Oc2cc(F)c(CN3CCN(c4ccc(C(=O)NC5CC5)cc4)CC3)cc2NC1=O (stereo not shown) [Compound 338, N-Cyclopropyl-4-(4-((7-fluoro-2-methyl-3-oxo-3,4-dihydro-2H-benzo[b][1,4]oxazin-6-yl)methyl)piperazin-1-yl)benzamide] | 79.4 | 0.4 | –
CC1Oc2cc(F)c(CN3CCN(c4ccc(C#N)cc4)CC3)cc2NC1=O (stereo not shown) [Compound 339, 4-(4-((7-Fluoro-2-methyl-3-oxo-3,4-dihydro-2H-benzo[b][1,4]oxazin-6-yl)methyl)piperazin-1-yl)benzonitrile] | 79.4 | 1.0 | –
CC1Oc2cc(F)c(CN3CCN(c4ccc(C#N)cn4)CC3)cc2NC1=O (stereo not shown) [Compound 340, 6-(4-((7-Fluoro-2-methyl-3-oxo-3,4-dihydro-2H-benzo[b][1,4]oxazin-6-yl)methyl)piperazin-1-yl)nicotinonitrile] | 63.1 | 0.9 | –
CC1Oc2ccc(Cn3cc4ccccc4n3)cc2NC1=O (stereo not shown) [Compound 344, 6-((2H-Indazol-2-yl)methyl)-2-methyl-2H-benzo[b][1,4]oxazin-3(4H)-one] | > 200 | 1.3 | –
CC1Oc2ccc(Cn3ncc4ccccc43)cc2NC1=O (stereo not shown) [Compound 345, 6-((1H-Indazol-1-yl)methyl)-2-methyl-2H-benzo[b][1,4]oxazin-3(4H)-one] | 79.4 | 1.2 | –
